Experimental data from patent US11723911B2, “Treatment of demyelinating diseases” (M ET P PHARMA AG, priority 2018, dated 2023).

How the values were obtained:
[1] = tested on: primary mixed glial cells derived from Plp-EGP mice; assay: Differentiation of PLP+ oligodendroglial cells co-expressing MBP in primary mixed glial cells from Plp-EGFP mice; format: cell-based, mouse; settings: for fold increase in the percentage of PLP+ cells co-expressing MBP compared to control / percentage of PLP+ cells co-expressing MBP: SANT 0.1 μM, testosterone 1 μM, alone or together; for percentage of PLP+ cells co-expressing MBP: 12 DIV
Experimental: Briefly, meninges are removed, and the dorsal telencephalons are microdissected and mechanically dissociated in DMEM supplemented with 10% calf serum, penicillin (50 U/ml), and streptomycin (50 μg/ml) (Thermo Fisher Scientific, France). The cell suspension is plated in a 24-well plates containing 0.5 ml of cultured medium coated with 30 μg/ml poly-1-lysine (Sigma-Aldrich).
The supplemented culture medium was replaced every other day with a fresh solution.
To analyse differentiation of myelin producing cells, the primary mixed glial cells were derived from Plp-EGP mice and cultured as described above. Detection of PLP+ cells co-expressing MBP was performed by using primary mixed glial cells derived from Plp-EGP mice and immunostaining for Mbp. Immunofluorescence images were acquired as described above and the number of PLP^+ cells co-expressing MBP were evaluated.

[2] = tested on: primary mixed glial cells; assay: Proliferation of Olig2+ cells (BrdU incorporation) in primary mixed glial cell cultures; format: cell-based, mouse; settings: for Olig2+ BrdU+ proliferating cells as percentage of total Olig2+ cells: SAG 1 μM or testosterone 1 μM from 5 to 12 DIV, BrdU 2 hours before end of culture
Experimental: Primary glial cell cultures were prepared from the dorsal telencephalon of newborn (P1) male mice as previously described in Feutz et al, J. Neurocytol, “Isolation and characterization of defective jimpy oligodendrocytes in culture”, 24:865-877 ([…]). Briefly, meninges are removed, and the dorsal telencephalons are microdissected and mechanically dissociated in DMEM supplemented with 10% calf serum, penicillin (50 U/ml), and streptomycin (50 μg/ml) (Thermo Fisher Scientific, France). The cell suspension is plated in a 24-well plates containing 0.5 ml of cultured medium coated with 30 μg/ml poly-1-lysine (Sigma-Aldrich). Cultures containing astrocytes, oligodendrocytes (OLs) and microglia cells are then incubated in 5% CO2 and 95% air in a humidified atmosphere (90%) at 37° C.
[…]. The supplemented culture medium was replaced every other day with a fresh solution. At 12 DIV, the cells were fixed for 20 minutes with 4% paraformaldehyde (PFA) in PBS, then permeabilized with 0.025% Triton X-100 for 10 minutes and blocked for 1 hour with Sea Block buffer (Thermo Fisher Scientific).
The cells were immunostained for BrdU and Olig2. For immunostaining, after overnight incubation with the primary antibodies at 4° C. followed by 3 washes in PBS, the cells were incubated with the appropriate secondary antibodies for 2 hours before washing with PBS and the addition of Fluoromount (Vector, clinisciences, France) as the mounting medium. Images were acquired with immunofluorescence microscopy as described above. (Data not shown).

[3] = tested on: LPC-induced demyelination in young male adult mice; assay: LPC-induced demyelination of the corpus callosum with or without SAG (immunostaining at 2 and 10 dpl); format: in vivo, mouse
Experimental: Image Acquisition and Analysis. Images were taken using the microscope analyzing system Axiovision 4.2 (Carl Zeiss, Inc.), the confocal Zeiss LSM 510-Meta Confocor 2 and the scanner imager with the CaseViewer software. Analyses were performed with ImageJ software. At least 10 sections per mouse were analyzed and data are the mean of 3-5 mice. For the brains derived from the lysolecithin (LPC)-injected animals, immunofluorescent-positive cells or areas were determined in one every other 5 sections throughout the whole demyelinated lesion per mouse and averaged for each animal. The lesion surface was determined by measuring the area of the nuclear densification (correlated with myelin loss visualized by MBP or PLP staining) one every other 5 slices through the whole demyelinated lesion.
The effect of Smo activation by the Smo agonist SAG on demyelination was investigated as follows. LPC-induced demyelination was performed as previously described in Ferent et al., J. Neuroscience 33:1759-1772 (2013), in the absence or presence of SAG, in young male adult mice. Briefly, demyelinating lesions were induced unilaterally by stereotaxic injections of 2 μl of a solution containing LPC 1% (Sigma-Aldrich) along with SAG (0.2 μM) or the corresponding vehicle, into the right corpus callosum by using a Hamilton syringe specifically dedicated for neural surgery (NH BIO, France). The injection was performed at the following coordinates (to the bregma): anteroposterior (AP)+1 mm, lateral+1 mm, dorsoventral (DV) −2.2 mm. The brain was removed from deeply anesthetized mice and transcardially perfused with 4% PFA. The tissue was post-fixed for 4 hours in a fresh 4% PFA solution before being cryopreserved in 30% sucrose, frozen in liquid nitrogen and cryostat sectioned (14 μm). 4-5 mice were used per time point for each treatment condition. Mice were sacrificed at 2 and 10 days post-lesion (dpl), and prepared for immunostaining of PDGFRα, Olig2/APC, Ki67/PDGFRα, GFAP, and Iba1/Arg1. Images of immunostaining were acquired using immunofluorescence microscopy (data not shown), and the results were quantified by evaluating number of cells per surface unit for PDGFRα (FIG. 4A), Olig2/APC (FIG. 4B), Ki67/PDGFRα (FIG. 4C), GFAP (FIG. 4D), Iba1/Arg1 (FIG. 4E)

[4] = tested on: experimental autoimmune encephalomyelitis (EAE) in castrated male mice; assay: Experimental autoimmune encephalomyelitis (EAE): clinical score, electron microscopy and immunostaining of lumbar spinal cord; format: in vivo, mouse; settings: for density of myelinated axons in spinal cord (electron microscopy) / g-ratio (axon diameter/total outer diameter of the myelinated fiber) / percentage of abnormal axons among total axons: 30 days post EAE induction; for g-ratio (axon diameter/total outer diameter of the myelinated fiber): small calibre axons (≤2.5 μm), n=3; for total density of activated Iba1+ microglia in the spinal cord: FIG. 5E; for EAE clinical score: between days 21 and 30, testosterone intranasal 0.2 mg/day, SAG oral gavage every other day; for area occupied by Arg1+ cells as percentage of the total area of the lesion: lumbar spinal cord, FIG. 5F; for percentage of abnormal axons among total axons / GFAP-positive area as percentage of the lesion area: spinal cord; for GFAP-positive area as percentage of the lesion area: FIG. 5G
Experimental: Electron microscopy. […] The g ratio (the ratio between the axon diameter and fiber diameter corresponding to myelin sheath+axon diameter) was estimated by measuring the minimum and maximum axon diameter and fiber diameter for each axon using ImageJ software. At least 300 randomly chosen myelinated axons were evaluated for each animal.
The pathology was induced according to the instructions from the provider (Hooke Laboratories, MA, USA). Briefly, mice were immunized by subcutaneous injection of an emulsion of MOG35-55 peptide (myelin oligodendrocyte glycoprotein[…] fragment 35-55) in complete Freund's adjuvant (at two sites using 0.1 ml of the pre-conditioned mixture for each site) followed on the same day (Day 0) by a first intraperitoneal injection of pertussis toxin in PBS and by a second one on Day 1 (250 ng/dose). The mice were scored blindly once a day starting at Day 7 post-immunization until Day 30 according to the following scale: 0.0=no obvious changes in motor function; 0.5=tip of tail is limp; 1.0=limp tail; 1.5=limp tail and hind leg inhibition; 2.0=limp tail and weakness of hind legs or signs of head tilting; 2.5=limp tail and dragging of hind legs or signs of head tilting; 3.0=limp tail and complete paralysis of hind legs or limb tail with paralysis of one front and one hind leg; 3.5=limp tail and complete paralysis of hind legs and animal unable to right itself when placed on its side; 4.0=limb tail, complete hind leg and partial front leg paralysis with minimal moving and feeding; 4.5=complete hind and partial front leg paralysis with no movement around the cage with the animal appearing no more alert; 5.0=extreme paralysis which requires euthanasia of the animal.
The active agents were administered at the onset of clinical symptoms until Day 30 after immunization. Testosterone was administered via the intranasal route (0.2 mg/day in a volume of 2.5 μl in each nostril) in an oleogel composition as described above. SAG was administered orally by gavage ([…] of mouse weight) every other day.
The animals were sacrificed by ketamine overdose. The spinal cord/vertebrae was removed and lumbar spinal cord/vertebrae samples were treated according to the requirements of the various histological procedures. For immunostaining, the spinal cord/vertebrae fragments were post-fixed in PFA 4% for 24 hrs. The spinal cords were removed from the vertebral column, processed in an ethanol/xylene bath and embedded in paraffin blocks. 7-μm sections were then obtained using a microtome (Leica) and allowed to dry on glass slides overnight at 37° C. For electron microscopy, the spinal cord/vertebrae fragments were post-fixed in a mixture of PFA 2% and glutaraldehyde 2% for 5 days. The spinal cords were removed from the vertebral column, post-fixed in cacodylate-buffered 1% osmium tetroxide for 1 hour at 4° C. and in 2% uranyl acetate for 1 hour at room temperature, and then dehydrated by serial dilutions of ethanol and embedded in epoxy resin. Ultrathin sections were contrasted with a saturated uranyl acetate solution.

[5] = tested on: LPC-induced demyelination model, castrated male mice; assay: Phosphorylated STAT3-expressing astrocytes in castrated male mice demyelinated by lysolecithin; format: in vivo, mouse
Excerpt: […]. The latter is important for both remyelination and astrocyte reactivity, which is similar to activated microglia involved in local inflammation. […].

[6] = tested on: postnatal day 10 male pups; assay: Developmental myelination in male pups treated subcutaneously from P3 to P10 (MBP/NF200 immunostaining); format: in vivo, mouse; settings: s.c. every other day from P3, SANT 20 μg/g, testosterone 20 μg

Row | Compound | Olig2+ BrdU+ proliferating cells as percentage of total Olig2+ cells [2] | density of myelinated axons in spinal cord (electron microscopy) [4] | g-ratio (axon diameter/total outer diameter of the myelinated fiber) [4] | total density of activated Iba1+ microglia in the spinal cord [4] | EAE clinical score [4] | area occupied by Arg1+ cells as percentage of the total area of the lesion [4] | percentage of abnormal axons among total axons [4] | GFAP-positive area as percentage of the lesion area [4] | fold increase in the percentage of PLP+ cells co-expressing MBP compared to control [1] | percentage of PLP+ cells co-expressing MBP [1] | myelinated area: area occupied by MBP as percentage of total area occupied by NF200 axons [6] | also measured
1 | CN[C@H]1CC[C@H](N(Cc2cccc(-c3ccncc3)c2)C(=O)c2sc3ccccc3c2Cl)CC1 [SAG, 3-Chloro-N-[trans-4-(methylamino)cyclohexyl]-N-[[3-(4-pyridinyl)phenyl]methyl]benzo[b]thiophene-2-carboxamide] | 8.4±0.5% | much higher density of myelinated axons | 0.737±0.005 | Neither testosterone nor SAG was found to significantly modify | ~1.0 | 10.9±1.7% | 14.0±1.7% | 25.1±2.2% | – | – | – | Effect on Mbp expression when used alone ([1]; SAG 0.1 μM or 1 μM alone): did not modify Mbp expression; Effect on testosterone-mediated OL differentiation ([1]; SAG 0.1 μM or 1 μM with testosterone 1 μM): slight but significant decrease; Iba1+ microglia versus control ([3]; 2 dpl): unaffected; area occupied by GFAP+ astrocytes versus control ([3]; 2 dpl): tended to be decreased; density of Arg1+ pro-regenerative microglia ([3]; 2 dpl): 103±7 cells per surface unit; density of proliferating Ki67+ PDGFRα+ OPCs ([3]; 2 dpl): 39±2 cells per surface unit; fold enhancement of the density of Arg1+ microglia ([3]; 2 dpl): 2 fold; fold increase of the proportion of Iba1 microglia co-expressing Arg1 ([3]; 2 dpl): two-fold; proportion of Iba1 microglia co-expressing Arg1 ([3]; 2 dpl): 58±5%; total number of PDGFRα+ OPCs versus control ([3]; 2 dpl): remained unchanged; density of Olig2+ APC+ mature OLs ([3]; 10 dpl): 83±7 cells per surface unit; fold increase in PDGFRα+ cells compared to controls ([3]; 10 dpl): 2 fold; proportion of mature OLs versus control ([3]; 10 dpl): not significantly different; PDGFRα+ cells (OPCs) per unit surface ([3]; 10 dpl, SAG 0.2 μM injected with LPC): 121±11 cells per surface unit; Claudin 5-positive area as percentage of the lesion area ([4]; blood brain barrier tight junction marker, FIG. 5H): 2.35±0.27%
2 | N#Cc1ccc(C2CCCc3cncn32)cc1 (stereo not shown) [fadrozole] | – | – | – | – | – | – | – | – | – | – | – | effect on the testosterone-induced increase of phosphorylated STAT3-expressing astrocytes ([5]; fadrozole per oral route 260 μg/kg with intranasal testosterone, 7 days): inhibited
3 | Cc1nn(-c2ccccc2)c(C)c1C=NN1CCN(Cc2ccccc2)CC1 [SANT-1, (4-Benzyl-piperazin-1-yl)-(3,5-dimethyl-1-phenyl-1H-pyrazol-4-ylmethylene)-amine] | – | – | – | – | – | – | – | – | 4 fold | 12.4±0.8% | 75.1±4.3% | Effect on testosterone-induced increase in Olig2+ BrdU+ cells ([2]; SANT-1 0.1 μM with testosterone 1 μM): blocks testosterone-induced increase
4 | C[C@]12CC[C@H]3[C@@H](CCC4=CC(=O)CC[C@@]43C)[C@@H]1CC[C@@H]2O [testosterone] | 3.8±0.6% | much higher density of myelinated axons | 0.773±0.003 | Neither testosterone nor SAG was found to significantly modify | ~2.0 | 6.8±1.4% | 15.8±1.4% | 38.8±1.8% | 4 fold | 11.7±1.5% | 78.0±4.1% | number of GFAP+ astrocytes expressing phosphorylated STAT3 ([5]; 7 days post-lesion, intranasal testosterone 0.2 mg/day or intranasal estradiol 0.05 mg/day): increased
